Reference: patent US20190227066A1, “COMPOSITIONS AND METHODS FOR DETECTING CANCER CELLS IN A TISSUE SAMPLE” (ISI Life Sciences, Inc., priority 2016, published 2019)

Test system: SDOV3 cells (an ovarian cancer cell line)
Experiment: Detection of ovarian cancer cells: uptake and intracellular deacylation, imaged by fluorescence microscopy
Type: cell-based
Conditions: 50 micromolar, folate-free medium (no FBS), washed with HBSS, 20× immersion objective
Description: Compound 24 and comparative compound A were evaluated for their ability to be absorbed by cancer cells and then, in the case of compound 24, deacylated by intracellular esterases so as to regenerate a fluorescent structure. Specifically, approximately 500,000 SDOV3 cells (an ovarian cancer cell line) were seeded into separate 35 mm culture dishes containing a folate-free growth medium (RPMI+10% FBS). The next day, the medium was replaced with a folate-free medium (no FBS). In one culture dish, the medium was supplemented with 25 micromolar of compound 24; and, in another culture dish, the medium was supplemented with 50 micromolar of comparative compound A. After incubation, the cells were washed with HBSS (Hank's balanced salt solution) to remove unbound compound. The cells were then imaged with a 20× immersion objective on a standard upright fluorescent microscope. […] FIG. 1 illustrates a picture showing the fluorescence generated. Note that only the cancer cells evidenced fluorescence and that the solution remained non-fluorescent. […] This evidences that that composition was not suitable for use in the methods described herein.

In the case of `Nc1nc2ncc(CNc3ccc(C(=O)NC(CCC(=O)NCCCCCNC(=O)c4cccc(-c5c6ccc(=O)cc-6oc6cc(O)ccc56)c4C(=O)O)C(=O)O)cc3)nc2c(=O)[nH]1` (stereo not shown) [comparative compound A], the “fluorescent signal of the cells” value is reported as “burst of fluorescence but immediately the fluorescence was bleached”.
